In general, IC50 refers to the concentration at which inhibition is half-maximal.

The experiment deals with urease (Jack bean) (Canavalia ensiformis, UniProt P07374). Put plainly: in vitro urease inhibition, indophenol method. It counts as biochemical.

Read-outs that look alike come from different tables or passages of the source.

Chain of urease (Jack bean) (P07374 whole entry, looked up): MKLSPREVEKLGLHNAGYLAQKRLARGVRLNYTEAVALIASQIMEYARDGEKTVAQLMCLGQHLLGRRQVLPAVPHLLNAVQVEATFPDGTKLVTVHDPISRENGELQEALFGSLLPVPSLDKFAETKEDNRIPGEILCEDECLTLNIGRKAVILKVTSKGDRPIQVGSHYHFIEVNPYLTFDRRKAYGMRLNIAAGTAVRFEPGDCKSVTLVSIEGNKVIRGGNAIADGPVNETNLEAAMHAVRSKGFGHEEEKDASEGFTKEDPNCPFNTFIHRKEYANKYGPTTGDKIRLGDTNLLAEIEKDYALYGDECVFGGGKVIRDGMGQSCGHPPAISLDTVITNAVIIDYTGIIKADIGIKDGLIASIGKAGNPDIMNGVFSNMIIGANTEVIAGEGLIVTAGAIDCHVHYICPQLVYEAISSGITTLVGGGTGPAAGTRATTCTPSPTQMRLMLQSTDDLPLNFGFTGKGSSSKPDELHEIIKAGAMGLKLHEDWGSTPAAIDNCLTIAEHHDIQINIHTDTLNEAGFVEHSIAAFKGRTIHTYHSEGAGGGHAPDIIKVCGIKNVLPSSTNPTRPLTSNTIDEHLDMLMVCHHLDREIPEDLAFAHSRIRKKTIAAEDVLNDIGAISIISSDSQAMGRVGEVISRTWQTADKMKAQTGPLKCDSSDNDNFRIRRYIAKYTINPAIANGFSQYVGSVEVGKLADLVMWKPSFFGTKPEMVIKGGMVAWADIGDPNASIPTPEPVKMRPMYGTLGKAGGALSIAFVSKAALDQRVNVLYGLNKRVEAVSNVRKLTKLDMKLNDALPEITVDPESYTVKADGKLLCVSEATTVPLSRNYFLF

With `O=C(NNC(=S)NC1CCCCC1)C12CC3CC(CC(C3)C1)C2` [compound 2, 2-(Adamantane-1-carbonyl)-N-cyclohexylhydrazine-1-carbothioamide], under “read-out: IC50 ± SEM (μM) *”, the half-maximal inhibitory concentration (IC50) turned out to be 2.44 ± 0.11 µM.

As to `CC(C)(C)NC(=S)NNC(=O)C12CC3CC(CC(C3)C1)C2` [compound 1, 2-(Adamantane-1-carbonyl)-N-(tert-butyl)hydrazine-1-carbothioamide], the half-inhibitory concentration (IC50) was 1.2 ± 0.07 µM.

The record behind these values is publication PMC9741201, “X-ray Structures and Computational Studies of Two Bioactive 2-(Adamantane-1-carbonyl)-N-substituted Hydrazine-1-carbothioamides” (Molecules, 2022).
